Earlier results, collected in patent US9901523B2, “Oral care products comprising zinc oxide and trimethylglycine” (Colgate-Palmolive Company, priority 2012, dated 2018).

Conditions: water at 30° C.

[O]=[Zn] [Zinc oxide]
solubility of zinc oxide: about 0.16 mg per 100 ml of water
